Assay results taken from patent US20050145258A1, “Composition, Method and Device for Blood Supply Fluctuation Therapy” (priority 2004, published 2005).

Legend:
liver cancer = assay type: in vivo, human
Experimental: The inlet tube member 2 was connected to gas resource of gaseous CO2. 500 ml of the gaseous CO2 was introduced into storing bag for cleaning the air within the storing bag and delivery system. T Stopcock 1 in inlet tube member 2 was turned off to stop the gas into storing bag temporally. The gaseous CO2 in storing bag 3 was aspirated into syringe 6, then impelled by the syringe 6. Due to the function of check valve, during the aspirating of syringe, the first check valve 5 was open; meanwhile the second and third check valves were closed automatically. The gas in the storing bag was aspirated into syringe 6. During the impelling of syringe, the first check valve was closed and the second and third check valves were open automatically. The gaseous CO2 in the syringe is impelled out of the delivery device through the outlet of the third three-way stopcock. Repeating syringe aspirating and impelling until all gas in the storing bag was emptied, and the air within storing bag and delivery device was cleaned. After that, the stopcock on the inlet tubular member was turned on again to introduce the gaseous CO2 from the gas resource into storing bag 3 to fill the storing bag (2000 ml), then the stopcock 1 was turned off to stop gaseous CO2 introduction. The gaseous CO2 and delivery system was ready for use. […] The delivery catheter 13 was connected to the outlet of the third three-way stopcock of the delivery system, and the air within the catheter 13 was removed. Using the gaseous CO2 as contrast medium, 50 ml gaseous CO2 at rate of 10 ml/second was injected by syringe 6 into the hepatic artery to perform a diagnostic DSA. The diagnostic DSA was used to identify the location, size of tumor, arteries supplying blood to liver cancer, blood flow within tumor tissue and time gaseous CO2 staying in tumor vessels. All those information was necessary to doctor to select an optimal protocol of Blood Supply Fluctuation Therapy (BSFT). Then, the angiographic catheter was advanced into the artery supplying blood flow to the liver cancer. […] Blood Supply Fluctuation Therapy (BSFT) with Gaseous CO2: gaseous CO2 was injected slowly by the delivery syringe 6 through the catheter 13 into the tumor vasculature. […] The gas displaces the blood flow within the tumor vessels partially or entirely depending on the injection rate and lasting time. With increasing of the gaseous mixture, the blood supply to the liver cancer was decreased, even stopped. Because tumor vasculature was immature, “vapor lock” in tumor vasculature was produced by the gaseous CO2. With decreasing and stopping of the blood flow of tumor vasculature, the gaseous CO2 injected through delivery catheter might overflow into the arteries supplying normal liver tissue that could be detected and monitored by X-ray fluoroscopy, DSA, CT or ultrasound imaging. Because the gaseous CO2 was absorbable in blood and could be flushed away in normal vasculature within one minute, therefore the gaseous CO2 overflowing into normal vasculature caused no damage in normal liver tissue. At this time, gaseous CO2 delivery was stopped. Due to vapor lock, there was no blood flow in tumor vasculature and no nutrition and oxygen was delivery to tumor cells, which made it under starvation and hypoxia. Meanwhile also due to the vapor lock, area of the CO2 bubbles contacting with blood was getting much smaller, which limits CO2 absorbability and prolongs CO2 gas staying within tumor vasculature. […] Under X-ray fluoroscopy, the tumor looked like a balloon filled with gas (FIG. 9). Thirty minutes after injection of CO2 about half of the gas still remained in the tumor (FIG. 10).

uterine fibroids = test: Blood supply fluctuation therapy with gaseous mixture of CO2 and nitric oxide in patients with uterine fibroids; assay type: in vivo, human
Excerpt: Preparation of gaseous mixture of CO2 and Nitric Oxide: the preparation procedure was same as that of gaseous CO2 in example 1, except the gaseous material was not CO2, but the gaseous mixture of CO2 and Nitric Oxide (NO). The concentration of NO was present in an amount effective to prevent vasospasm and ischemia, 40 ppm here.
Selective catheterization and diagnostic Digital Subtraction Angiogrpahy (DSA) with Gaseous Mixture of CO2 and Nitric Oxide (NO): under monitoring of X-ray fluoroscope and using interventional technique of selective catheterization, a delivery catheter was inserted into the internal iliac artery in the patients with uterine fibroids. […]
Blood Supply Fluctuation Therapy (BSFT) with Gaseous Mixture of CO2 and Nitric Oxide (NO): gaseous mixture of CO2 and Nitric Oxide (NO) was injected slowly and intermittently by the delivery syringe through the delivery catheter into tumor vasculature at the rate of 1 ml/s and with 5 minutes interval each 20 ml injection. […] With the decreasing and stopping of the blood flow of tumor vasculature, the gaseous mixture injected through delivery catheter might overflows into the arteries supplying normal uterine wall that could be detected and monitored by X-ray fluoroscopy, DSA, CT or ultrasound imaging. […]

O=C=O [CO2, carbon dioxide]
CO2 bubbles in immature tumor vasculature, DSA imaging (liver cancer; human, in vivo): filled and accumulated | CO2 bubbles in normal liver tissue, DSA imaging (liver cancer; human, in vivo): no bubbles accumulated | damage in normal liver tissue (liver cancer; human, in vivo): no damage | discomfort felt by patients receiving the injection (liver cancer; human, in vivo): minor discomfort on liver area | time CO2 accumulates and stays in abnormal vasculature (liver cancer; human, in vivo): for hours, even for days | time to be flushed away in normal vasculature (liver cancer; human, in vivo): one | vapor lock in tumor vasculature (liver cancer; repeated 50 ml injections through catheter): produced | filling of liver tumor with CO2, X-ray (liver cancer; tumor 7 cm in diameter, total of 500 ml CO2, 3-5 ml/s, 3-5 minutes interval each 50 ml injection): fully filled | vapor lock in tumor vasculature, CT scan (uterine fibroids; 45 minutes after BSFT): produced | gas seen in normal uterine tissue, CT scan (uterine fibroids; human, in vivo): No gas
